# Measured values taken from patent publication US12618044B2, “Specification of functional cranial placode derivatives from human pluripotent stem cells” (MEMORIAL SLOAN-KETTERING CANCER CENTER, priority 2013, dated 2026).
# Where no end group is shown, it is not given here.
# B1: FGF8: caudalizing factor / pituitary patterning factor (protein, UniProt P55075 23-233, looked up)
# Fibroblast growth factor 8: QEGPGRGPALGRELASLFRAGREPQGVSQQHVREQSLVTDQLSRRLIRTYQLYSRTSGKHVQVLANKRINAMAEDGDPFAKLIVETDTFGSRVRVRGAETGLYICMNKKGKLIAKSNGKGKDCVFTEIVLENNYTALQNAKYEGWYMAFTRKGRPRKGSKTRQHQREVHFMKRLPRGHHTTEQSLRFEFLNYPPFTRSLRGSQRTWAPEPR
# B2: BMP4: recombinant bone morphogenetic protein-4, activator of BMP signaling (protein, UniProt P12644 293-408, looked up)
# Bone morphogenetic protein 4: SPKHHSQRARKKNKNCRRHSLYVDFSDVGWNDWIVAPPGYQAFYCHGDCPFPLADHLNSTNHAIVQTLVNSVNSSIPKACCVPTELSAISMLYLDEYDKVVLKNYQEMVVEGCGCR
# What was measured:
# Assay type in all cases: cell-based, human
# [1] = system: SIX1::GFP cells; experiment: High throughput screen for compounds that promote placode induction; conditions: added at day 3, imaged at day 6
# Procedure: High throughput screen for compounds that promote placode induction: SIX1::GFP cells were cultured according to the PIP-E6 protocol. 1280 test compounds were screened for their ability to enhance placode induction. Each test compound was added to the cell culture media at day 3, and cells were imaged to determine the level of placode induction at day 6. (FIG. 60).
# [2] = system: hESC; experiment: Placode induction from hESC (N-SB versus PIP, SIX1 expression); conditions: for placode fate: high concentrations, starting at day 3 of PIP
# Procedure: A timed withdrawal of the BMP inhibitor Noggin during N-SB differentiation was also tested to determine if placodal fates could be induced via derepressing endogenous BMP signaling. A time course analysis was performed during which Noggin was removed at different time points of the N-SB protocol (FIG. 28A).
# Withdrawal of the BMP inhibitor noggin during N-SB differentiation may enhance the emergence of placodal fates by de-repressing endogenous BMP signaling. To this end, a time course study was performed by removing noggin at different time points of the NSB protocol (FIG. 11A) while monitoring the induction of placodal marker (FIG. 11B) trophoectodermal, neurectodermal by qRT-PCR analysis at day 11 of differentiation. Withdrawal of noggin at day 2 or 3 of differentiation yielded efficient induction of Six1 while noggin withdrawal at day 1 of differentiation lead to the induction of Eya1 in the absence of Six1 expression.
# Neural Induction and placode induction: Feeder-free neural induction was carried out as previously described (Chambers et al., 2009). Briefly, hESCs cultures were disaggregated using accutase for 20 minutes, washed using hESCs media and pre-plated on gelatin for 1 hour at 37° C. in the presence of ROCK inhibitor to remove MEFs. The non-adherent hESCs were washed and plated on matrigel at a density of 60,000 cells/cm2 on matrigel (BD) coated dishes in MEF conditioned hESCs media (CM) spiked with 10 ng/mL of FGF-2 and ROCK-inhibitor. The ROCK inhibitor was withdrawn after 24 hours, and hESCs were allowed to expand in CM for 2 days or until they were 95% confluent. The initial differentiation media conditions included knock out serum replacement (KSR) media with 10 μM TGF-β inhibitor (SB431542, Tocris) and 250 ng/mL of Noggin (R&D). Upon day 5 of differentiation, increasing amounts of N2 media (25%, 50%, and 75%) were added to the KSR media every two days while maintaining […] of Noggin and TGF-β inhibitor. Similar results could be obtained when using KSR-free conditions (E6 medium (Chen et al., 2011)) following adjustments in BMP signaling; data not shown). For placode induction, Noggin was removed at day3 of differentiation. In some experiments, BMP-4 (R&D 50 ng/ml), Noggin (R&D 250 ng/ml), DKK-1 (R&D 100 ng/ml), FGF8 (R&D 50 ng/ml), SU5402 (Tocris 10 μM), Wnt-3a (R&D 50 ng/ml), DAPT (Tocris, 10 μM), CHIR99021 (Stemgent, 3 μM), Cyclopamine (Tocris, 10 μM), Sonic Hedgehog (C25II-R&D 100 ng/ml), and Purmorphamine (Stemgent, 1 μM), were added.
# Microscopy, antibodies, and flow cytometry: Cells were fixed using 4% paraformaldehyde for 15 minutes, washed with PBS, permeabilized using 0.3% Triton X in PBS, and blocked using 1% BSA. Primary antibodies used for microscopy included PAX6 (Covance, DSHB), TUJ1 (Covance), BRN3A (Chemicon), AP2a (DSHB), HNK1 (Sigma), PAX3 (DSHB), SIX1 (ABR, Atlas), ISL1 (DSHB), PERIPHERIN (Santa Cruz), GSU (gift A. McNeilly), CRYAB (Chemicon), DACH1 (Proteintech), EYA1 (gift Kawakami), E-CADHERIN (Abcam), FSH (gift A. McNeilly), GATA2 (Abcam), chick GFP (Abcam), hNCAM (Santa Cruz), GLUTAMATE (Sigma), KRT14 (Labvision), SIX6 (Atlas), LHX3 (Abcam), OVOL2 (Aviva), TFAP2A (DSHB), FOXG1 (gift E. Lai), hCA (Stem Cells), and Ki67 (Sigma). Appropriate Alexa 488, Alexa 568, Alexa 647 secondary antibodies (Molecular Probes) and/or DAPI counterstaining was used for visualization. For Flow Cytometry, cells were mechanically dissociated after exposure to accutase for 20 min at 25° C. To eliminate dead cell populations in FACS analysis, we used DAPI or 7-AAD according to manufacturer's recommendation. Cells were analyzed using FACScan (Becton Dickinson) and FlowJo software (Tree Star, Inc.).
# [3] = system: SIX1::H2B-GFP reporter cells; experiment: PIP-E6 placode induction in E8/E6 media
# Text: PIP protocol using E8/E6 cell culture media: E8/E6 cell culture media (Essential8™/Essential6™, Nat Methods. 2011 May; 8(5):424-9) comprises the ingredients DMEM/F12, ascorbic acid, selenum, insulin, NaHCO3, transferrin, FGF2 and TGFβ. […] The present example describes a modified PIP protocol that utilizes the BMP deficient E8/E6 media.
# A Six1 knock in GFP reporter cell line (SIX1::H2B-GFP) was developed to monitor when cells have been transformed to a placode fate. (FIGS. 41A-41E). Culturing the reporter cells in E8/E6 media according to the KSR PIP protocol described herein, in which cells were cultured in media comprising the SMAD inhibitors SB431542 and LDN193189, wherein LDN193189 was withdrawn after 2 days of culture, yielded low levels of placode cells after 11 days of culture. (FIGS. 42A-42B). BMP4, which is not present in E8/E6 media, is necessary for cells to differentiate into non-neural ectoderm and placode, as evidenced by expression of the marker AP2. (FIGS. 43A-43C). […] (FIGS. 44A-44C). […] (FIGS. 45A-45B). […] (FIGS. 46 and 47). Although the yield of induced placode cells was low using the PIP-E6 protocol, the induction was highly consistent compared to the KSR PIP protocol. (FIG. 48).
# In order to make the trigeminal placode fate the default fate when culturing using the PIP-E6 protocol, PIP-E6 was modified by adding CHIR (Wnt activator) to the culture protocol. […] (FIGS. 49A-49B). FIG. 50 depicts the pituitary, lens and trigeminal placodes that can be induced using the PIP-E6 culture protocol.
# [4] = system: pre-placode cells; experiment: Lens placode specification (PITX3 qRT-PCR); conditions: added days 7-11, read at day 16
# Procedure: The impact of four developmental signaling pathways on lens placode specification was tested by using activators and inhibitors of BMP, FGF, WNT, and Hedgehog signaling. To quantify the induction of lens placode fate, the lens precursor marker PITX3 expression was monitored at day 16 of differentiation (FIG. 37B). […] A role for BMPs and FGFs has been previously proposed in developmental studies in the chick (Sjödal et al., 2007). […] The characteristic layering of lens fibers (FIG. 36H, right panel) mimicked the structural properties of developing lens in vivo.
# [5] = system: SIX1::GFP cells; experiment: PIP-E6 pituitary induction and hormone release; conditions: for number of putative pituitary stem cells (Ki67 and Sox2): days 6-14
# Procedure: Induction of anterior pituitary gland cells: Pituitary placode cells were induced by culturing SIX1::GFP cells according to the PIP-E6 protocol, wherein pituitary factors SHH, FGF8, FGF10 and/or hypothalamus CM were supplemented in the culture media from days 6-15.
# Induction of anterior pituitary gland cells: SIX1::GFP hPSCs were cultured according to a modified PIP-E6 protocol, wherein pituitary factors such as FGF8, FGF10 or SHH, etc., were included in the culture media from days 6-14. Cells were sorted based on expression of SIX1::GFP, and were replated at a concentration of 10,000 cells/cm^2 on PO/L/F, and were incubated with small molecule/growth factors for 2 weeks. (FIG. 68). […] (FIG. 69).
# [6] = system: hESC derived FP; experiment: A/P respecification of hESC derived FP by caudalizing factors
# Procedure: For MS5 induction, established methods previously reported were used (Perrier et al., 2004). Feeder free neural induction was carried out as previously described (Chambers et al., 2009). Briefly, hESCs cultures were disaggregated using accutase for 20 minutes, washed using hESCs media and pre-plated on gelatin for 1 hour at 37° C. in the presence of ROCK inhibitor to remove MEFs. The nonadherent hESCs were washed and plated on matrigel at a density of 20,000 cells/cm2 on matrigel (BD) coated dishes in MEF conditioned hESCs media (CM) spiked with 10 ng/mL of FGF-2 and ROCK-inhibitor. The ROCK inhibitor was withdrawn, and hESCs were allowed to expand in CM for 3 days or until they were nearly confluent. The initial differentiation media conditions included knock out serum replacement (KSR) media with […] TGF-b inhibitor (SB431542, Tocris) and 500 ng/mL of Noggin (R&D). Upon day 5 of differentiation, increasing amounts of N2 media (25%, 50%, 75%) was added to the KSR media every two days while maintaining 500 ng/mL of Noggin and TGF-b inhibitor. For FP induction, Sonic C25II was added at 200 ng/ml. In some experiments, DKK-1 (R&D 100 ng/ml) FGF8 (R&D 50 ng/ml), Wnt-1 (Peprotech 50 ng/ml) and Retinoic Acid (R&D 1 uM) were added.
# The inventors contemplated the use of SIX6 as a putative marker of anterior FP identity. Thus SIX6 status of the hESC derived FP was used to mark respecification in response to known caudalizing agents such as FGF8, Wnt-1, and Retinoic Acid. Each of these caudalizing factors was added in combination with SHH and the resulting tissue was assessed for expression of the FP markers FOXA2 and NETRIN-1, the AN marker BF1, and putative anterior FP marker SIX6. FP generation was found not compromised in the presence of caudalizing factors.
# The inventors discovered that different factors had varied effects on marker expression (FIG. 20C).
# As mentioned above, studies had identified different enhancers that directed SHH expression to different A/P region along ventral axis (Jeong et al., 2008). […] In the absence of caudalizing factors (SHH C25II alone), LacZ expression was observed herein following transfection with the SBE2 but not the SBE1 enhancer supporting the hypothesis that hESC derived FP is anterior by default (FIG. 20D). In contrast SBE2 activity was abolished upon treatment with Wnt1 or FGF8 while SBE1 activity was induced under these conditions.
molecule,measurement,setting,value
CN1CCC(c2c[nH]c3ccc(O)cc23)CC1 [BRL-54443],placode induction,[1],promoting placode induction
Cc1c[nH]c(-c2cnc(NCCNc3ccc(C#N)cn3)nc2-c2ccc(Cl)cc2Cl)n1 [CHIR99021],placode fate,[2],suppressed placode
same,default placode fate,[3]; days 2-4 of the PIP-E6 protocol,induction of trigeminal placodes
O.c1cnc2c(c1)ccc1cccnc12 [Phenanthroline monohydrate],placode induction,[1],promoting placode induction
Cc1c[nH]c(/C=C2\C(=O)Nc3ccccc32)c1CCC(=O)O [SU5402],TFAP2A expression,[2]; day 3-11 of PIP,maintaining
same,emergence of SIX1+ clusters,[2]; day 3-11 of PIP,suppressed
same,placode marker (SIX1) gene expression,[2]; day 11,complete loss
same,KRT14 mature keratinocyte marker,[2]; long-term cultures (day 42-60),robust induction
same,PITX3 expression,[4],significantly induced
FGF2: growth factor,number of putative pituitary stem cells (Ki67 and Sox2),[5],may increase
"somatocrinin: external stimulus causing growth hormone release (YADAIFTNSYRKVLGQLSARKLLQDIMSRQQGESNQERGARARL; ends and bridges not checked; UniProt P01286 32-75, looked up)",growth hormone (GH) release,[5]; hormone expressing cells,released growth hormone (GH)
B1,ASCL1 expression,[2]; pre-placode cells,enriches
same,SBE1 activity,[6]; SHH enhancer LacZ construct,induced
same,SBE2 activity,[6]; SHH enhancer LacZ construct,abolished
same,SIX6 expression,[6]; in combination with SHH,significant reduction
same,number of putative pituitary stem cells (Ki67 and Sox2),[5],may increase
B2,placode fate,[2],suppressed placode
same,CDX2 induction,[2]; in the presence of SB,triggered induction of CDX2
same,PITX3 expression,[4],significantly induced
same,cell fate induced,"[3]; 5 ng/ml, with SB431542, withdrawn after 3 days",placode development
same,yield of placode precursors,"[3]; 5 ng/ml, withdrawn after 3 days versus 1 or 2 days, 6 total days",highest yield of placode precursors
same,cell fate induced,[3]; 20 ng/ml,induction of non-neural ectoderm
